Article PMC5007270, “[^68Ga]NODAGA-RGD – Metabolic stability, biodistribution, and dosimetry data from patients with hepatocellular carcinoma and liver cirrhosis” (European Journal of Nuclear Medicine and Molecular Imaging, 2016)
Entries after “also recorded” stand apart in the source; their conditions may differ. Where two headings read alike, the source gives them in different places.

Columns and labels:
[1] = in vivo; cited from earlier work
From the text: The radiation dose estimates from this study indicate low radiation burden for patients during a [^68Ga]NODAGA-RGD PET scan. The total effective dose was in the range of other radiolabeled RGD-peptides used in clinical studies (e.g., [^18F]Galacto-RGD, Fluciclatide, and RGD-K5; for overview see [6]) as well as other commonly used oncologic PET tracers such as [^18F]FDG (between 20 and 30 μSv/MBq). Even if 200 MBq [^68Ga]NODAGA-RGD (average in this study was 167 ± 10 MBq) would have been injected, the effective dose would have only been 4.3 mSv. This is well within the limits of risk c ...

[2] = Radiation dosimetry (OLINDA/EXM); format: in vivo, human
Method: For dosimetry calculations, the OLINDA/EXM software (Version 1.1, copyright Vanderbilt University, 2007) was used. Radioactivity in the source organs was determined by multiplying the measured radioactivity concentration (Bq/ml) by the organ masses from the OLINDA adult men phantom; the data were body weight- and lean body mass index-corrected; furthermore, kidney mass was patient-corrected by CT scan.
(§1) Urinary bladder radioactivity was determined from three VOIs at least 2.5 cm in diameter drawn inside the bladder. Subsequently, the urinary bladder volume was measured by drawing freehand ROIs around bladder contour at each of the three emission scans. The volume was calculated by HERMES software. The results were used to calculate the urine bladder content residence time.

[3] = Metabolite analysis of blood samples by RP-HPLC; format: in vivo; details: human blood 30 and 60 min p.i., n = 3; acetonitrile extraction, RP-HPLC C18, 30-s fractions, gamma counter
Method: (§2) Blood samples were collected 30 and 60 min and urine 60 min after tracer injection. Blood samples (approx. 15 ml) were centrifuged at 2,500 rpm for 5 min. The supernatant was treated with acetonitrile (1:1) and centrifuged at 3,000 rpm for 3 min. To remove the organic solvent, 1 ml of the supernatant was treated with an argon stream and approx. 300 μl of the remaining solution was analyzed. For urine analysis, an aliquot of 1 ml was passed through a sterile filter (Millex GV, Merck KGaA, Darmstadt, Germany), washed with 1 ml water (which was separately collected) and 50 μl of the filtrate was analyzed.
(§3) Analysis of metabolites was carried out using reversed-phase high-performance liquid chromatography (RP-HPLC) systems. For blood sample analysis, a Dionex P680 Pump (Germering, Germany) with a sample loop of 1 ml and a SRD Nucleosil 120-3C18 column (150 × 3 mm; Vienna, Austria) were used and fractions of 30 s were collected manually and counted in a 2480 Wizard^2 3″ automatic gamma counter (PerkinElmer, Vienna, Austria). For urine analysis, a Dionex Ultimate 3000 RS with an ACE 3C18 column (150 × 3 mm; Aberdeen, Great Britain) and a raytest Gabi radiometric detector (raytest Isotopenmessgeraete GmbH, Straubenhardt, Germany) were used. […]

HCC lesions = test: Tracer accumulation in HCC lesions (PET/CT); format: in vivo, human; details: nine patients, HCC lesions identified by CT/MRI
From the text: The study included nine patients, and was approved by the ethics committee of the Medical University of Innsbruck and the Austrian Competent Authority (BASG, EudraCT No. 2013-003741-42). Informed written consent was obtained from all patients. Inclusion criteria were untreated HCC lesions in patients with liver cirrhosis Child–Pugh class A or B. Diagnosis and exact number and size of HCC lesions was confirmed by a multiphasic CT or MRI according to EASL/EORTC guidelines. Exclusion criteria were decompensated liver cirrhosis Child–Pugh class C, uncontrolled complications of portal hypertension (refractory ascites, advanced hepatic encephalopathy or large esophageal varices), and advanced renal insufficiency with an eGFR below 30 ml/min. […]
To obtain the time activity curves and to calculate the residence times, VOIs were placed in the corresponding organs (liver, urine bladder, spleen, kidneys, small intestine, muscle, lung, and left ventricle). The diameter of the VOIs was set to 2.5 cm for all organs with the exception of the liver, where it was set to 5 cm and placed in the center of the corresponding organ to avoid underestimated organ radioactivity because of partial-volume effects. […]

[4] = Safety and tolerability, phase I clinical study; format: in vivo, human
From the text: The study included nine patients, and was approved by the ethics committee of the Medical University of Innsbruck and the Austrian Competent Authority (BASG, EudraCT No. 2013-003741-42). Informed written consent was obtained from all patients. Inclusion criteria were untreated HCC lesions in patients with liver cirrhosis Child–Pugh class A or B. Diagnosis and exact number and size of HCC lesions was confirmed by a multiphasic CT or MRI according to EASL/EORTC guidelines. Exclusion criteria were decompensated liver cirrhosis Child–Pugh class C, uncontrolled complications of portal hypertension (refractory ascites, advanced hepatic encephalopathy or large esophageal varices), and advanced renal insufficiency with an eGFR below 30 ml/min. Baseline examinations included CT or MRI scan, physical examination, ECG, and laboratory tests (including creatinine, blood count, transaminases, bilirubin, and coagulation parameters) not older than 14 days prior to the PET scan. Physical examination and laboratory tests were repeated on the day after the PET scan and during further follow-up visits to assess possible adverse reactions.

[5] = Metabolite analysis of urine samples by RP-HPLC; format: in vivo; details: human urine 60 min p.i., n = 6; RP-HPLC C18, radiometric detector
Method: as §2, §3

[6] = Organ/tissue residence times; format: in vivo, human; details: all patients
From the text: (§4) To obtain the time activity curves and to calculate the residence times, VOIs were placed in the corresponding organs (liver, urine bladder, spleen, kidneys, small intestine, muscle, lung, and left ventricle). The diameter of the VOIs was set to 2.5 cm for all organs with the exception of the liver, where it was set to 5 cm and placed in the center of the corresponding organ to avoid underestimated organ radioactivity because of partial-volume effects. Due to patient movement, the PET/CTs were fused between second and third scan to guarantee the identical position of VOIs at different scans.
Because of the limited number of measured time points, a monoexponential fit based on the decay corrected data was used for calculation of organ residence times.
as §1

[7] = PET/CT biodistribution (%ID/l, SUV); format: in vivo, human; details: for SUV at 1 h / tissue uptake dose at 1 h / SUV: human, total radioactivity; for SUV at 1 h / SUV: intravenous; for SUV at 1 h / tissue uptake dose at 1 h: 60 min p.i.; for tissue uptake dose at 1 h: PET VOI; for SUV: average of all patients
Method: For each patient, a total of three PET/CT scans were performed using a Discovery PET/CT 690 VCT scanner (GE Healthcare, Milwaukee, WI, USA). The patients were allowed to urinate after the second scan and a sample of the urine was collected for metabolic analysis. For all patients, the region from upper thigh to the skull/cranium was covered by a seven-bed emission scan (2 min per bed position; field of view is 15.2 cm with overlapping acquisitions, resulting in a length of 12.3 cm for each bed position) performed in caudocranial direction. The mean starting times of the three scans were 8.3 ± 2.1, 36.9 ± 2.8, and 75.1 ± 3.4 min after tracer injection, respectively. Injected activity ranged from 154 to 184 MBq [^68Ga]NODAGA-RGD corresponding with approx. 10–12 μg peptide. X-ray CT transmission scans were performed twice, before the first and the third scan, to correct for gamma ray attenuation and to obtain the anatomical data required for drawing of the volume of interest (VOI). A second CT scan was required to guarantee the same positioning of VOIs (as for first and second scan) for image analysis because of patient movement.
Positron emission data were reconstructed using an ordered-subsets expectation maximization algorithm. Reconstructions were performed with two iterations and 24 subsets. The images were corrected for attenuation using CT data collected over the same regions as for emission imaging. For image analysis, Hermes software (Version P5 gold 4.4-B; Hermes Medical Solutions AB, Stockholm, Sweden) was used. Images were calibrated to Bq/ml for radiation dosimetry estimates.
as §4

[8] = parameters: method as in PMID 18483090; details: 60 min after injection; cited from earlier work
[9] = i.v., OLINDA/EXM, individual residence times, mean of patients
[10] = i.v., OLINDA/EXM, individual residence times, mean of patients, voiding after second scan

## OC[C@H]1OC(O)[C@H]([18F])[C@@H](O)[C@@H]1O (stereo partly drawn) [[^18F]FDG, 2-[F-18]fluoro-2-deoxy-D-glucose]
[1]
  effective dose: 20-30 μSv/MBq

## N=C(N)NCCC[C@@H]1NC(=O)[C@H](CCCCNC(=O)CCC(C(=O)O)N2CCN(CC(=O)O)CCN(CC(=O)O)CC2)NC(=O)[C@@H](Cc2ccccc2)NC(=O)[C@H](CC(=O)O)NC(=O)CNC1=O (stereo partly drawn) [[^68Ga]NODAGA-RGD, metal not drawn]
[2]; OLINDA/EXM, 30-min bladder voiding model
  effective dose, 30-min bladder voiding model: 10.9 ± 1.9 μSv/MBq
[2]; highest absorbed dose, OLINDA/EXM
  absorbed radiation dose, urinary bladder wall: 0.26 ± 0.09 mSv/MBq
[2]; hypothetical injection of 200 MBq
  effective dose if 200 MBq injected: 4.3 mSv
[2]; [9]
  Radiation dose estimate, Adrenals, Mean: 7.88 μSv/MBq
  Radiation dose estimate, Brain, Mean: 5.21 μSv/MBq
  Radiation dose estimate, Breast, Mean: 5.01 μSv/MBq
  Radiation dose estimate, Gallbladder wall, Mean: 8.67 μSv/MBq
  Radiation dose estimate, Heart wall, Mean: 6.33 μSv/MBq
  Radiation dose estimate, Kidneys, Mean: 69.00 μSv/MBq
  Radiation dose estimate, Liver, Mean: 32.00 μSv/MBq
  Radiation dose estimate, Lower large intestinal wall, Mean: 8.98 μSv/MBq
  Radiation dose estimate, Lungs, Mean: 7.17 μSv/MBq
  Radiation dose estimate, Muscle, Mean: 6.30 μSv/MBq
  Radiation dose estimate, Osteogenic cells, Mean: 8.10 μSv/MBq
  Radiation dose estimate, Pancreas, Mean: 7.99 μSv/MBq
  Radiation dose estimate, Red marrow, Mean: 5.47 μSv/MBq
  Radiation dose estimate, Skin, Mean: 5.03 μSv/MBq
  Radiation dose estimate, Small intestinal wall, Mean: 15.80 μSv/MBq
  Radiation dose estimate, Spleen, Mean: 48.20 μSv/MBq
  Radiation dose estimate, Stomach wall, Mean: 1.95 μSv/MBq
  Radiation dose estimate, Testes, Mean: 7.15 μSv/MBq
  Radiation dose estimate, Thymus, Mean: 5.57 μSv/MBq
  Radiation dose estimate, Thyroid, Mean: 5.39 μSv/MBq
  Radiation dose estimate, Total body, Mean: 7.29 μSv/MBq
  Radiation dose estimate, Upper large intestinal wall, Mean: 7.75 μSv/MBq
[2]; [10]
  Effective dose, Mean: 21.50 μSv/MBq
  Radiation dose estimate, Urinary bladder wall, Mean: 262.00 μSv/MBq
[3]
  metabolites in blood: No metabolites could be detected; also recorded: No metabolites were detected
HCC lesions
  uptake in HCC compared with background liver tissue: No increased uptake; also recorded: no increased radioactivity concentration
[4]; clinical and biochemical investigations, nine patients
  changes in kidney, liver, or heart function during follow-up: no significant changes
[4]; nine male patients with HCC and liver cirrhosis, i.v. 154-184 MBq
  drug-/procedure-related adverse effects: no drug-related adverse effects were observed; also recorded: no procedure-related adverse reactions were observed
[4]; nine male patients with HCC and liver cirrhosis, i.v. 154-184 MBq (approx. 10-12 μg peptide)
  tolerability: well tolerated in all patients
[5]
  metabolites in urine: No metabolites could be detected; also recorded: No metabolites were detected
[6]; all organs
  sum of the mean residence time: 1.11 h
[6]
  residence time, Remainder of body, Mean: 42.2 (MBq × h/MBq) × 10^2
[6]; monoexponential fit
  residence time, Blood, Mean: 0.011 h
  residence time, Kidneys, Mean: 0.054 h
  residence time, Liver, Mean: 0.113 h
  residence time, Lungs, Mean: 0.011 h
  residence time, Muscle, Mean: 0.246 h
  residence time, Small intestine, Mean: 1.6 (MBq × h/MBq) × 10^2
  residence time, Spleen, Mean: 1.8 (MBq × h/MBq) × 10^2
[7]; bladder, patients, read-out: median SUV, bladder
  SUV at 1 h: 31 SUV
[7]; blood, patients, read-out: median SUV, blood
  SUV at 1 h: 0.72 SUV
[7]; blood, patients, read-out: %ID/l, blood
  tissue uptake dose at 1 h: 0.56 ± 0.43 %ID
[7]; intestine, patients, read-out: median SUV, intestine
  SUV at 1 h: 0.88 SUV
[7]; intestine, patients, read-out: %ID/l, intestine
  tissue uptake dose at 1 h: 0.54 ± 0.39 %ID
[7]; kidneys, patients, read-out: median SUV, kidneys
  SUV at 1 h: 4.5 SUV
[7]; liver, patients, read-out: median SUV, liver
  SUV at 1 h: 2.9 SUV
[7]; liver, first scan (8 ± 2 min p.i.), read-out: mean SUV in the liver, first image
  SUV: 3.8 SUV
[7]; liver, last scan (75 ± 4 min p.i.), read-out: mean SUV in the liver, last image
  SUV: 2.9 SUV
[7]; lung, patients, read-out: median SUV, lung
  SUV at 1 h: 0.39 SUV
[7]; lung, patients, read-out: %ID/l, lung
  tissue uptake dose at 1 h: 0.22 ± 0.05 %ID
[7]; muscle, patients, read-out: median SUV, muscle
  SUV at 1 h: 0.26 SUV
[7]; muscle, patients, read-out: %ID/l, muscle tissue
  tissue uptake dose at 1 h: 0.16 ± 0.8 %ID
[7]; spleen, patients, read-out: median SUV, spleen
  SUV at 1 h: 3.8 SUV
[7]; patients, PET
  elimination: rapid and predominantly renal elimination
[7]; voiding between second and third scan (60 min p.i.), Fig. 3
  radioactivity concentration in the bladder after voiding, % of the value before voiding: approx. 20%

## [^18F]Fluciclatide
[8]
  intact tracer in blood: 74%
